Tests used:
Assay in all cases: cells
NB5 = assay type: functional, cell-based, Homo sapiens; conditions: Homo sapiens, NB5;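 note: growth inhibition of NB5 cells, read out as cell viability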
Description: SANGER: Inhibition of human NB5 cell growth in a cell viability assay.

RXF 393 = assay type: functional, cell-based, Homo sapiens; conditions: Homo sapiens, RXF 393;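 note: growth inhibition of human RXF 393 cells, read out with a cell viability assay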
Description: SANGER: Inhibition of human RXF393 cell growth in a cell viability assay.

NCI-H1092 = assay type: functional, cell-based, Homo sapiens; conditions: Homo sapiens, NCI-H1092;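 note: cell growth inhibition measured with a cell viability assay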
Description: SANGER: Inhibition of human NCI-H1092 cell growth in a cell viability assay.

8-MG-BA = assay type: functional, cell-based, Homo sapiens; conditions: Homo sapiens, 8-MG-BA;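 note: growth inhibition of 8-MG-BA cells, read out with a cell viability assay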
Description: SANGER: Inhibition of human 8-MG-BA cell growth in a cell viability assay.

HuTu80 = assay type: functional, cell-based, Homo sapiens, HUTU-80; conditions: Homo sapiens, HuTu80;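 note: growth inhibition of HuTu80 human cells, determined with a cell viability readout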
Description: SANGER: Inhibition of human HUTU-80 cell growth in a cell viability assay.

KGN = assay type: functional, cell-based, Homo sapiens; conditions: Homo sapiens, KGN;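 note: growth inhibition of KGN cells, read out with a cell viability assay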
Description: SANGER: Inhibition of human KGN cell growth in a cell viability assay.

CTV-1 = assay type: functional, cell-based, Homo sapiens; conditions: Homo sapiens, CTV-1;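 note: growth inhibition of the cell line, read out with a cell viability assay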
Description: SANGER: Inhibition of human CTV-1 cell growth in a cell viability assay.

MN-60 = assay type: functional, cell-based, Homo sapiens; conditions: Homo sapiens, MN-60;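 note: growth inhibition of the MN-60 cell line, determined with a cell viability assay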
Description: SANGER: Inhibition of human MN-60 cell growth in a cell viability assay.

BB65-RCC = assay type: functional, cell-based, Homo sapiens; conditions: Homo sapiens, BB65-RCC;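 note: growth inhibition of the cell line, measured with a cell viability assay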
Description: SANGER: Inhibition of human BB65-RCC cell growth in a cell viability assay.

NKM-1 = assay type: functional, cell-based, Homo sapiens; conditions: Homo sapiens, NKM-1;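 note: growth inhibition of NKM-1 cells, read out with a cell viability assay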
Description: SANGER: Inhibition of human NKM-1 cell growth in a cell viability assay.

no-10 = assay type: functional, cell-based, Homo sapiens; conditions: Homo sapiens;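 note: growth inhibition of no-10 cells, read out with a cell viability assay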
Description: SANGER: Inhibition of human no-10 cell growth in a cell viability assay.

MEG-01 = assay type: functional, cell-based, Homo sapiens; conditions: Homo sapiens, MEG-01;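 note: growth inhibition of MEG-01 cells, read out by a cell viability assay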
Description: SANGER: Inhibition of human MEG-01 cell growth in a cell viability assay.

CP66-MEL = assay type: functional, cell-based, Homo sapiens; conditions: Homo sapiens, CP66-MEL;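 note: growth inhibition of CP66-MEL cells determined in a cell viability assay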
Description: SANGER: Inhibition of human CP66-MEL cell growth in a cell viability assay.

IST-MEL1 = assay type: functional, cell-based, Homo sapiens; conditions: Homo sapiens, IST-MEL1;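 note: growth inhibition of the cell line, read out with a cell viability assay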
Description: SANGER: Inhibition of human IST-MEL1 cell growth in a cell viability assay.

HT-144 = assay type: functional, cell-based, Homo sapiens; conditions: Homo sapiens, HT-144
Description: SANGER: Inhibition of human HT-144 cell growth in a cell viability assay.

SW684 = assay type: functional, cell-based, Homo sapiens; conditions: Homo sapiens, SW684;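 note: growth inhibition of human SW684 cells, measured by a cell viability assay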
Description: SANGER: Inhibition of human SW684 cell growth in a cell viability assay.

MS-1 = assay type: functional, cell-based, Homo sapiens; conditions: Homo sapiens, MS-1;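 note: growth inhibition of MS-1 cells, read out by cell viability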
Description: SANGER: Inhibition of human MS-1 cell growth in a cell viability assay.

NOMO-1 = assay type: functional, cell-based, Homo sapiens; conditions: Homo sapiens, NOMO-1;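 note: growth inhibition of human NOMO-1 cells measured by a cell viability assay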
Description: SANGER: Inhibition of human NOMO-1 cell growth in a cell viability assay.

TGBC24TKB = assay type: functional, cell-based, Homo sapiens; conditions: Homo sapiens, TGBC24TKB;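 note: growth inhibition of human TGBC24TKB cells, read out with a cell viability assay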
Description: SANGER: Inhibition of human TGBC24TKB cell growth in a cell viability assay.

ES6 = assay type: functional, cell-based, Homo sapiens; conditions: Homo sapiens, ES6;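 note: growth inhibition of human ES6 cells, read out with a cell viability assay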
Description: SANGER: Inhibition of human ES6 cell growth in a cell viability assay.

SW982 = assay type: functional, cell-based, Homo sapiens; conditions: Homo sapiens, SW982;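 note: growth inhibition of SW982 cells, read out with a cell viability assay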
Description: SANGER: Inhibition of human SW982 cell growth in a cell viability assay.

TE-12 = assay type: functional, cell-based, Homo sapiens; conditions: Homo sapiens, TE-12;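 note: growth inhibition of TE-12 cells, read out by a cell viability assay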
Description: SANGER: Inhibition of human TE-12 cell growth in a cell viability assay.

KM12 = assay type: functional, cell-based, Homo sapiens; conditions: Homo sapiens, KM12;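 note: KM12 cell growth inhibition, read out with a cell viability assay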
Description: SANGER: Inhibition of human KM12 cell growth in a cell viability assay.

KNS-42 = assay type: functional, cell-based, Homo sapiens; conditions: Homo sapiens, KNS-42;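 note: growth inhibition of KNS-42 cells, read out with a cell viability assay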
Description: SANGER: Inhibition of human KNS-42 cell growth in a cell viability assay.

SF-268 = assay type: functional, cell-based, Homo sapiens; conditions: Homo sapiens, SF-268;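 note: growth inhibition of SF-268 cells determined with a cell viability assay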
Description: SANGER: Inhibition of human SF268 cell growth in a cell viability assay.

NCI-H1155 = assay type: functional, cell-based, Homo sapiens; conditions: Homo sapiens, NCI-H1155;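 note: cell growth inhibition measured by a viability assay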
Description: SANGER: Inhibition of human NCI-H1155 cell growth in a cell viability assay.

MV4-11 = assay type: functional, cell-based, Homo sapiens, MV-4-11; conditions: Homo sapiens, MV4-11;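 note: cell viability readout measuring growth inhibition of human MV-4-11 cells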
Description: SANGER: Inhibition of human MV-4-11 cell growth in a cell viability assay.

OMC-1 = assay type: functional, cell-based, Homo sapiens; conditions: Homo sapiens, OMC-1;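 note: growth inhibition of the OMC-1 cell line, measured by a cell viability assay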
Description: SANGER: Inhibition of human OMC-1 cell growth in a cell viability assay.

BT-474 = assay type: functional, cell-based, Homo sapiens; conditions: Homo sapiens, BT-474
Description: SANGER: Inhibition of human BT-474 cell growth in a cell viability assay.

NB6 = assay type: functional, cell-based, Homo sapiens; conditions: Homo sapiens, NB6;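 note: growth inhibition of NB6 cells, read out by a cell viability assay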
Description: SANGER: Inhibition of human NB6 cell growth in a cell viability assay.

SK-N-FI = assay type: functional, cell-based, Homo sapiens; conditions: Homo sapiens, SK-N-FI;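 note: cell viability assay measuring growth inhibition of human SK-N-FI cells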
Description: SANGER: Inhibition of human SK-N-FI cell growth in a cell viability assay.

DB = assay type: functional, cell-based, Homo sapiens; conditions: Homo sapiens, DB
Description: SANGER: Inhibition of human DB cell growth in a cell viability assay.

EOL1 = assay type: functional, cell-based, Homo sapiens; conditions: Homo sapiens, EOL1;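 note: growth inhibition of EoL-1 cells, read out by a cell viability assay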
Description: SANGER: Inhibition of human EoL-1-cell cell growth in a cell viability assay.

DOHH-2 = assay type: functional, cell-based, Homo sapiens; conditions: Homo sapiens, DOHH-2;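 note: growth inhibition of human DOHH-2 cells, read out with a cell viability assay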
Description: SANGER: Inhibition of human DOHH-2 cell growth in a cell viability assay.

NEC8 = assay type: functional, cell-based, Homo sapiens; conditions: Homo sapiens, NEC8;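 note: growth inhibition of human NEC8 cells, read out by a cell viability assay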
Description: SANGER: Inhibition of human NEC8 cell growth in a cell viability assay.

MOLT-4 = assay type: functional, cell-based, Homo sapiens; conditions: Homo sapiens, MOLT-4;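 note: growth inhibition of MOLT-4 cells, determined with a cell viability readout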
Description: SANGER: Inhibition of human MOLT-4 cell growth in a cell viability assay.

CW-2 = assay type: functional, cell-based, Homo sapiens; conditions: Homo sapiens, CW-2;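 note: growth inhibition of CW-2 cells, read out by a cell viability assay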
Description: SANGER: Inhibition of human CW-2 cell growth in a cell viability assay.

GCIY = assay type: functional, cell-based, Homo sapiens; conditions: Homo sapiens, GCIY;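 note: growth inhibition of the human GCIY cell line, read out by a cell viability assay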
Description: SANGER: Inhibition of human GCIY cell growth in a cell viability assay.

EW-18 = assay type: functional, cell-based, Homo sapiens; conditions: Homo sapiens, EW-18;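 note: growth inhibition of EW-18 cells, read out by a cell viability assay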
Description: SANGER: Inhibition of human EW-18 cell growth in a cell viability assay.

ETK-1 = assay type: functional, cell-based, Homo sapiens; conditions: Homo sapiens, ETK-1;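 note: growth inhibition of human ETK-1 cells, read out with a cell viability assay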
Description: SANGER: Inhibition of human ETK-1 cell growth in a cell viability assay.

RKO = assay type: functional, cell-based, Homo sapiens; conditions: Homo sapiens, RKO;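 note: growth inhibition of human RKO cells, read out with a cell viability assay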
Description: SANGER: Inhibition of human RKO cell growth in a cell viability assay.

MHH-PREB-1 = assay type: functional, cell-based, Homo sapiens; conditions: Homo sapiens, MHH-PREB-1;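 note: cell viability assay measuring inhibition of proliferation of human MHH-PREB-1 cells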
Description: SANGER: Inhibition of human MHH-PREB-1 cell growth in a cell viability assay.

KY821 = assay type: functional, cell-based, Homo sapiens; conditions: Homo sapiens, KY821;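 note: growth inhibition of human KY821 cells, read out by a cell viability assay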
Description: SANGER: Inhibition of human KY821 cell growth in a cell viability assay.

Lu-65 = assay type: functional, cell-based, Homo sapiens; conditions: Homo sapiens, Lu-65;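 note: growth inhibition of Lu-65 cancer cells, read out by a cell viability assay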
Description: SANGER: Inhibition of human LU-65 cell growth in a cell viability assay.

MZ1-PC = assay type: functional, cell-based, Homo sapiens; conditions: Homo sapiens, MZ1-PC;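 note: cell viability assay measuring growth inhibition of human MZ1-PC cells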
Description: SANGER: Inhibition of human MZ1-PC cell growth in a cell viability assay.

LB2241-RCC = assay type: functional, cell-based, Homo sapiens; conditions: Homo sapiens, LB2241-RCC;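 note: cell viability assay measuring how strongly the cultured human renal carcinoma line is prevented from growing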
Description: SANGER: Inhibition of human LB2241-RCC cell growth in a cell viability assay.

JVM-3 = assay type: functional, cell-based, Homo sapiens; conditions: Homo sapiens, JVM-3;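 note: growth inhibition of human JVM-3 cells, read out with a cell viability assay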
Description: SANGER: Inhibition of human JVM-3 cell growth in a cell viability assay.

COLO-668 = assay type: functional, cell-based, Homo sapiens; conditions: Homo sapiens, COLO-668
Description: SANGER: Inhibition of human COLO-668 cell growth in a cell viability assay.

EKVX = assay type: functional, cell-based, Homo sapiens; conditions: Homo sapiens, EKVX;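 note: growth inhibition of human EKVX cells, read out with a cell viability assay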
Description: SANGER: Inhibition of human EKVX cell growth in a cell viability assay.

Cc1cn(-c2cc(NC(=O)c3ccc(C)c(Nc4nccc(-c5cccnc5)n4)c3)cc(C(F)(F)F)c2)cn1 [NILOTINIB]
IC50 (NB5): > 2 µM | IC50 (RXF 393): > 2 µM | IC50 (NCI-H1092): > 2 µM | IC50 (8-MG-BA): > 2 µM | IC50 (HuTu80): > 2 µM | IC50 (KGN): > 2 µM | IC50 (CTV-1): > 2 µM | IC50 (MN-60): > 2 µM | IC50 (BB65-RCC): > 2 µM | IC50 (NKM-1): 0.901 µM | IC50 (no-10): > 2 µM | IC50 (MEG-01): 0.00828 µM | IC50 (CP66-MEL): > 2 µM | IC50 (IST-MEL1): > 2 µM | IC50 (HT-144): > 2 µM | IC50 (SW684): > 2 µM | IC50 (MS-1): > 2 µM | IC50 (NOMO-1): > 2 µM | IC50 (TGBC24TKB): > 2 µM | IC50 (ES6): > 2 µM | IC50 (SW982): > 2 µM | IC50 (TE-12): > 2 µM | IC50 (KM12): > 2 µM | IC50 (KNS-42): > 2 µM | IC50 (SF-268): > 2 µM | IC50 (NCI-H1155): > 2 µM | IC50 (MV4-11): > 2 µM | IC50 (OMC-1): > 2 µM | IC50 (BT-474): > 2 µM | IC50 (NB6): > 2 µM | IC50 (SK-N-FI): > 2 µM | IC50 (DB): > 2 µM | IC50 (EOL1): < 0.00781 µM | IC50 (DOHH-2): > 2 µM | IC50 (NEC8): > 2 µM | IC50 (MOLT-4): > 2 µM | IC50 (CW-2): > 2 µM | IC50 (GCIY): > 2 µM | IC50 (EW-18): > 2 µM | IC50 (ETK-1): > 2 µM | IC50 (RKO): > 2 µM | IC50 (MHH-PREB-1): > 2 µM | IC50 (KY821): > 2 µM | IC50 (Lu-65): > 2 µM | IC50 (MZ1-PC): > 2 µM | IC50 (LB2241-RCC): 1.02 µM | IC50 (JVM-3): > 2 µM | IC50 (COLO-668): > 2 µM | IC50 (EKVX): > 2 µM

CO[C@H]1C[C@@H]2CC[C@@H](C)[C@@](O)(O2)C(=O)C(=O)N2CCCC[C@H]2C(=O)O[C@H]([C@H](C)C[C@@H]2CC[C@@H](OC(=O)C(C)(CO)CO)[C@H](OC)C2)CC(=O)[C@H](C)/C=C(\C)[C@@H](O)[C@@H](OC)C(=O)[C@H](C)C[C@H](C)/C=C/C=C/C=C/1C [TEMSIROLIMUS]
IC50 (NB5): 0.111 µM | IC50 (RXF 393): 0.0157 µM | IC50 (NCI-H1092): > 0.2 µM | IC50 (8-MG-BA): > 0.2 µM | IC50 (HuTu80): > 0.2 µM | IC50 (KGN): > 0.2 µM | IC50 (CTV-1): > 0.2 µM | IC50 (MN-60): 0.0193 µM | IC50 (BB65-RCC): 0.007 µM | IC50 (NKM-1): 0.198 µM | IC50 (no-10): > 0.2 µM | IC50 (MEG-01): 0.0882 µM | IC50 (CP66-MEL): > 0.2 µM | IC50 (IST-MEL1): 0.123 µM | IC50 (HT-144): > 0.2 µM | IC50 (SW684): > 0.2 µM | IC50 (MS-1): > 0.2 µM | IC50 (NOMO-1): 0.168 µM | IC50 (TGBC24TKB): 0.141 µM | IC50 (ES6): > 0.2 µM | IC50 (SW982): > 0.2 µM | IC50 (TE-12): > 0.2 µM | IC50 (KM12): > 0.2 µM | IC50 (KNS-42): > 0.2 µM | IC50 (SF-268): > 0.2 µM | IC50 (NCI-H1155): 0.0636 µM | IC50 (MV4-11): 0.0189 µM | IC50 (OMC-1): > 0.2 µM | IC50 (BT-474): > 0.2 µM | IC50 (NB6): > 0.2 µM | IC50 (SK-N-FI): > 0.2 µM | IC50 (DB): 0.00312 µM | IC50 (EOL1): 0.0161 µM | IC50 (DOHH-2): 0.0168 µM | IC50 (NEC8): > 0.2 µM | IC50 (MOLT-4): 0.00431 µM | IC50 (CW-2): > 0.2 µM | IC50 (GCIY): > 0.2 µM | IC50 (EW-18): > 0.2 µM | IC50 (ETK-1): 0.0318 µM | IC50 (RKO): 0.135 µM | IC50 (MHH-PREB-1): 0.000495 µM | IC50 (KY821): > 0.2 µM | IC50 (Lu-65): > 0.2 µM | IC50 (MZ1-PC): > 0.2 µM | IC50 (LB2241-RCC): 0.0393 µM | IC50 (JVM-3): 0.00395 µM | IC50 (COLO-668): > 0.2 µM | IC50 (EKVX): > 0.2 µM
